Columns and labels:
[1] = test system: ICAM1; type: cell-based, mouse; conditions: b.End.3 cells, 1 µg/ml LPS, peptide 1 µg/ml added 8 hours after stimulation, for 60 h, flow cytometry, n = 6 technical replicates
[2] = test system: VCAM1; type: cell-based, mouse; conditions: b.End.3 cells, 1 µg/ml LPS, peptide 1 µg/ml added 8 hours after stimulation, for 60 h, flow cytometry, n = 6 technical replicates
[3] = test system: A/Hamburg/05/2009 (H1N1pdm); test: Screening of antiviral activity in MDCK II cells, H1N1pdm; type: cell-based, influenza virus; conditions: for antiviral effect: MOI 0.001, 48 h, CellTiter-Glo, normalized to aprotinin = 100%; for antiviral efficacy compared among the tested atropopeptides: statement made for the four strains together
[4] = test system: A/Hessen/1/2003 (H3N2); test: Screening of antiviral activity in MDCK II cells, H3N2; type: cell-based, influenza virus; conditions: for antiviral effect: MOI 0.001, 48 h, CellTiter-Glo, normalized to aprotinin = 100%; for antiviral efficacy compared among the tested atropopeptides: statement made for the four strains together
[5] = test system: B/Malaysia/2506/2004 (Malaysia/B); test: Screening of antiviral activity in MDCK II cells, Malaysia/B; type: cell-based, influenza virus; conditions: for antiviral effect: MOI 0.001, 48 h, CellTiter-Glo, normalized to aprotinin = 100%; for antiviral efficacy compared among the tested atropopeptides: statement made for the four strains together
[6] = test system: B/Massachusetts/71 (Massachusetts/B); test: Screening of antiviral activity in MDCK II cells, Massachusetts/B; type: cell-based, influenza virus; conditions: for antiviral effect: MOI 0.001, 48 h, CellTiter-Glo, normalized to aprotinin = 100%; for antiviral efficacy compared among the tested atropopeptides: statement made for the four strains together
[7] = test system: MDCK II cells; conditions: 100 µM, 48 h, CellTiter-Glo

Row | Substance | ICAM1 expression (mean fluorescence intensity) [1] | VCAM1 expression (mean fluorescence intensity) [2] | antiviral effect [3] | antiviral efficacy compared among the tested atropopeptides [3] | antiviral effect [4] | antiviral efficacy compared among the tested atropopeptides [4] | antiviral effect [5] | antiviral efficacy compared among the tested atropopeptides [5] | antiviral effect [6] | antiviral efficacy compared among the tested atropopeptides [6] | cytotoxicity toward MDCK II cells (cell viability, ATP) [7]
1 | H-WYIW-OH (also: sidechain bridge or staple (positions not given here)) [compound 1, scabrirubin CB-1, cyclic tetrapeptide from S. albus/pUWL-LauA + ScaB, C–N biaryl crosslink between Trp-1 and Trp-4] | slight reduction | unchanged | dose-dependent antiviral effect | comparable antiviral efficacies | dose-dependent antiviral effect | comparable antiviral efficacies | dose-dependent antiviral effect | comparable antiviral efficacies | dose-dependent antiviral effect | comparable antiviral efficacies | did not show cytotoxicity
2 | scabrirubin [reference compound] | slight reduction | slightly elevated | dose-dependent antiviral effect | comparable antiviral efficacies | dose-dependent antiviral effect | comparable antiviral efficacies | dose-dependent antiviral effect | comparable antiviral efficacies | dose-dependent antiviral effect | comparable antiviral efficacies | did not show cytotoxicity
3 | H-WYQWL-OH (also: sidechain bridge or staple (positions not given here)) [compound 3, scabrirubin CB-3, cyclic pentapeptide from S. albus/pUWL-SvaA + ScaB with C–N biaryl crosslink] | significantly reduced | significantly reduced | dose-dependent antiviral effect | slightly reduced activity | dose-dependent antiviral effect | slightly reduced activity | dose-dependent antiviral effect | slightly reduced activity | dose-dependent antiviral effect | slightly reduced activity | did not show cytotoxicity

Reference: publication PMC12352619, “Phylogeny-guided discovery of a promiscuous P450 macrocyclase for the production of diverse atropopeptides” (Chemical Science, 2025)
